Columns and labels:
hCB1 = hCB1 (Homo sapiens, UniProt P21554); assay: In vitro binding assay using hCB1-CHO membranes, [3H]-CP-55,940 displacement (Protocol II); set-up: expressed in transfected cells; host or cells: CHO (hCB1-CHO, generated in-house)
Description: II. Protocol for In Vitro Assay Using hCB1-CHO Membranes
The reaction was set up in a total volume of 200 μl in PEI (Poly(ethyleneimine)) (0.2%) precoated Millipore GFB (Glass Fibre-B) filter plates. 1 mM stocks of test compounds were prepared in DMSO and tested at a final concentration of 300 nM. The non-specific binding was determined by 0.5 μM CP-55, 940. […] The assay mixture (with or without the test compound) was incubated at 37° C. for 1 hour. The reaction was stopped by rapid filtration under vacuum and the radioactivity on the filters was measured by liquid scintillation counting.

CB1 [1] = target: T1, CB1 (Rattus norvegicus, UniProt P20272); assay: GTPγS binding assay, CB1 functional assay in rat cerebellar membrane (Protocol VIII); type: biochemical; set-up: 10 μg rat cerebellum membrane; from tissue; host or cells: rat cerebellum membrane, prepared in-house; conditions: for Per Se % Stimulation: GTPγS binding over basal, rat cerebellar membrane; for % Inhibition of WIN-55212-2 induced stimulation: GTPγS binding
Summary of the method: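 Rat cerebellar membranes (10 μg) incubated 1 h at 30 °C with 0.2 nM [35S]GTPγS, 50 μM GDP, and compound at 1 μM or 300 nM, alone or with 1 μM WIN 55,212-2, in Tris/MgCl2/EGTA/NaCl pH 7.4. Filter-bound radioactivity counted; percent stimulation calculated against basal specific binding (nonspecific defined by 10 μM GTPγS).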

CB1 [2] = target: T1, CB1; assay: Rat CB1 receptor binding using brain membrane, [3H]SR141716A displacement (Protocol I); set-up: CB1 receptor present in a rat brain membrane preparation; from tissue; host or cells: rat brain membrane; conditions: rat brain membrane, [3H]SR141716A displacement
hCB2 = hCB2 (Homo sapiens, UniProt P34972); assay: In vitro binding assay using hCB2-CHO membranes, [3H]-CP-55,940 displacement (Protocol IV); set-up: expressed in transfected cells; host or cells: CHO (hCB2-CHO, generated in-house); conditions: hCB2-CHO membranes, [3H]-CP-55,940 displacement
Summary of the method: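 Compounds were tested at a single 300 nM final concentration for displacing 0.75 nM [3H]-CP-55,940 from hCB2-CHO membranes (1 h, 30 °C, 50 mM Tris pH 7.4, 5 mM MgCl2, 1 mM EDTA, 0.1% BSA). Filter-bound radioactivity was counted, with 0.5 μM unlabelled CP-55,940 for nonspecific binding; results are % displacement.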

[3] = tested at 1 uM in presence of 1 μM WIN 55,212-2

T1 sequence (P20272 whole entry): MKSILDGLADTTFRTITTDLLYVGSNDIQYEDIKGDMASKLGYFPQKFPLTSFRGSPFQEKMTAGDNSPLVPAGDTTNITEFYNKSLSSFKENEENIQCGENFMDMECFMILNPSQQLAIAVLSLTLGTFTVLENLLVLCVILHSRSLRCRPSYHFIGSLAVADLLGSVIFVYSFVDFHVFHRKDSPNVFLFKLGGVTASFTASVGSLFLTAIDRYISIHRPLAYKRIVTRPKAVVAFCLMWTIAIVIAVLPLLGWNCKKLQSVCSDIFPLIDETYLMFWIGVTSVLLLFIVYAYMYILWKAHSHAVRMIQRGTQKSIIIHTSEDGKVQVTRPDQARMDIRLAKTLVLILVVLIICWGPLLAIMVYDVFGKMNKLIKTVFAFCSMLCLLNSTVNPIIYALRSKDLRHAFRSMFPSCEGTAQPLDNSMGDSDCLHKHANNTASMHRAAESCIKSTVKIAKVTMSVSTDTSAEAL
hCB1, sequence (P21554 whole entry): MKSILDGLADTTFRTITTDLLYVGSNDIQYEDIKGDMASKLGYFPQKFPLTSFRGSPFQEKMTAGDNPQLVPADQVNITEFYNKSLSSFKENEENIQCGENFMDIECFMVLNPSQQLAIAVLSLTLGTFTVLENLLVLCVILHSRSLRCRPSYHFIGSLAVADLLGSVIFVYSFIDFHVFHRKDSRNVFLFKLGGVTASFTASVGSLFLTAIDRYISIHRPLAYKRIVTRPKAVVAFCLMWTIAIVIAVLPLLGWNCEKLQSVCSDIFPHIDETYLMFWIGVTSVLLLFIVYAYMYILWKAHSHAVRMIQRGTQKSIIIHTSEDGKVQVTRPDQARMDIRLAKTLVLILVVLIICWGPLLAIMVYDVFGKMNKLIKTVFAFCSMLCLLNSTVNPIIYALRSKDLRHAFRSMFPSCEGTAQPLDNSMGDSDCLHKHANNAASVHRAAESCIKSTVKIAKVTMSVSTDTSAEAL
hCB2, sequence (P34972 whole entry): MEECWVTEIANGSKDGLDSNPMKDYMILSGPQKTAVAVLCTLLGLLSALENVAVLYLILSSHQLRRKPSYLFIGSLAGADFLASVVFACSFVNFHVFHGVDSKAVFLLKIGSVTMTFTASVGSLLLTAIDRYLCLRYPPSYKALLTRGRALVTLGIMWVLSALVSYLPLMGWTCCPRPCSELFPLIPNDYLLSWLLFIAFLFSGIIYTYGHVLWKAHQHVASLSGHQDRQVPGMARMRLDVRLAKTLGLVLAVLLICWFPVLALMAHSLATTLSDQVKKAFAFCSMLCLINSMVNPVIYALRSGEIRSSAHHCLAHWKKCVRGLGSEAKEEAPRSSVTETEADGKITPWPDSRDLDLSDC

Row | Structure (SMILES) | % Displacement Protocol II (hCB1) [%] | Per Se % Stimulation (CB1 [1]; tested at 1 uM) [%] | % Inhibition of WIN-55212-2 induced stimulation (CB1 [1]; [3]) [%] | % Displacement Protocol I (CB1 [2]) [%] | % Displacement Protocol IV (hCB2) [%] | Per Se % Stimulation (CB1 [1]; tested at 300 nM) [%] | % Inhibition of WIN-55212-2 induced stimulation (CB1 [1]; tested at 300 nM in presence of 1 μM WIN 55,212-2) [%]
1 | CN(NC(=O)c1nn(-c2ccc(Cl)cc2Cl)c2c1C1CCC2c2ccccc21)c1ccc(Cl)cc1Cl (stereo not drawn) [Example 505, N(12)-{N′-[(2,4-Dichlorophenyl)-N′-methyl]amino}-10-(2,4-dichlorophenyl)-10,11-diazatetracyclo[6.5.2.0^2,7.0^9,13]pentadeca-2,4,6,9(13),11-pentaene-12-carboxamide] | 77.51 | 15.6 | 94.4 | 90.6 | – | – | –
2 | O=C(NCc1ccc(Cl)cc1)c1nn(-c2ccc(Cl)cc2)c2c1C1CC3CC(C1)CC2C3 [Example 112, N(7)-(4*Chlorobenzyl)-5-(4-chlorophenyl)-5,6-diazatetracyclo[7.3.1.1^3,11.0^4,8]tetradeca-4(8)-6-diene-7-carboxamide] | 25.76 | – | – | 59.9 | – | – | –
3 | O=C(NCc1ccc(F)cc1)c1nn(-c2ccc(Cl)cc2)c2c1C1CC3CC(C1)CC2C3 [Example 113, N(7)-(4-Fluorobenzyl)-5-(4-chlorophenyl)-5,6-diazatetracyclo[7.3.1.1^3,11.0^4,8]tetradeca-4(8)-6-diene-7-carboxamide] | 27.70 | – | – | 55.9 | 17.02 | – | –
4 | O=C(NN(c1ccccc1)c1ccccc1)c1nn(-c2ccc(Cl)cc2)c2c1C1CCC2C1 (stereo not drawn) [Example 236] | 55.25 | 8.0 | 83.0 | 75.5 | – | – | –
5 | O=C(NNc1ccc(Cl)cc1)c1nn(-c2ccc(Cl)cc2)c2c1C1CC3CC(C1)CC2C3 [Example 125] | 22.07 | – | – | 52.7 | 5.04 | – | –
6 | O=C(NCc1ccccc1)c1nn(-c2ccccc2Cl)c2c1C1CC3CC(C1)CC2C3 [Example 182, N(7)-Benzyl-5-(2-chlorophenyl)-5,6-diazatetracyclo[7.3.1.1^3,11.0^4,8]tetradeca-4(8)-6-diene-7-carboxamide] | 19.35 | – | – | 39.9 | 12.78 | – | –
7 | CN(NC(=O)c1nn(-c2ccc(Cl)cc2Cl)c2c1C1CCC2c2ccccc21)C1CCCCC1 (stereo not drawn) [Example 504, N(12)-[(N′-Cyclohexyl-N′-methyl)amino]-10-(2,4-dichlorophenyl)-10,11-diazatetracyclo[6.5.2.0^2,7.0^9,13]pentadeca-2,4,6,9(13),11-pentaene-12-carboxamide] | 62.9 | – | – | 79.7 | – | – | –
8 | O=C(NCCc1ccccc1)c1nn(-c2ccc(Cl)cc2)c2c1C1CC3CC(C1)CC2C3 [Example 136, N(7)-(2-Phenylethyl)-5-(4-chlorophenyl)-5,6-diazatetracyclo[7.3.1.1^3,11.0^4,8]tetradeca-4(8)-6-diene-7-carboxamide] | 1.01 | – | – | 31.3 | 15.44 | – | –
9 | Cn1nc(C(=O)NN2CCCCC2)c2c1C1CC3CC(CC2C3)C1 [Example 189b, N(7)-Piperidino-5-methyl-5,6-diazatetracyclo[7.3.1.1^3,11.0^4,8]tetradeca-4(8)-6-diene-7-carboxamide] | 24.03 | – | – | 3 | 2.56 | – | –
10 | O=C(c1nn(-c2ccccc2)c2c1C1CC3CC(C1)CC2C3)N1CCCCC1 [Example 171, N(7)-phenyl-6,7-diazatetracyclo[7.3.1.1^3,11.0^4,8]tetradeca-4(8)-5-dien-5-yl-piperidino methanone] | 19.37 | – | – | 0 | 0.56 | – | –
11 | O=C(NN1CCCCC1)c1nn(-c2ccccc2Br)c2c1C1CC3CC(C1)CC2C3 [Example 101, N(7)-Piperidino-5-(2-bromophenyl)-5,6-diazatetracyclo[7.3.1.1^3,110^4,8]tetradeca-4(8),6-diene-7-carboxamide] | 5.75 | – | – | 28.8 | 0 | – | –
12 | O=C(NN1CCCCC1)c1nn(-c2ccccc2)c2c1C1CC3CC(C1)CC2C3 [Example 169, N(7)-piperidino-5-phenyl-5,6-diazatetracyclo[7.3.1.1^3,11.0^4,8]tetradeca-4(8)-6-diene-7-carboxamide] | 29.65 | – | – | 19 | – | – | –
13 | O=C(NN1CCCCC1)c1n[nH]c2c1C1CC3CC(CC2C3)C1 [Example 187, N(7)-Piperidino-5,6-diazatetracyclo[7.3.1.1^3,11.0^4,8]tetradeca-4(8)-6-diene-7-carboxamide] | 15.66 | – | – | 6.0 | 0.7 | – | –
14 | O=C(c1nn(-c2ccc(Cl)cc2)c2c1C1CCC2C1)N1CCCCC1 (stereo not drawn) [Example 210, 1-(4-Chlorophenyl)-4,5,6,7-tetrahydro-1H-4,7-methano-indazol-3-yl piperidino methanone] | 11.58 | – | – | 12.6 | 17.69 | – | –
15 | O=C(Nc1ccccc1)c1nn(-c2ccccc2)c2c1C1CC3CC(C1)CC2C3 [Example 168, N(7)-Phenyl-5-phenyl-5,6-diazatetracyclo[7.3.1.1^3,11.0^4,8]tetradeca-4(8)-6-diene-7-carboxamide] | 11.47 | – | – | 37 | – | – | –
16 | CC1(C)[C@@H]2CC[C@@](C)(C2)[C@@H]1NC(=O)c1nn(-c2ccc(F)cc2F)c2c1C1CC3CC(C1)CC2C3 [Example 145, N(7)-(1S,2endo-1,3,3-Trimethyl-bicyclo[2.2.1]hept-2-yl)-5-(2,4-difluorophenyl)-5,6-diazatetracyclo[7.3.1.1^3,11.0^4,8]tetradeca-4(8)-6-diene-7-carboxamide] | 54.01 | – | – | – | 75.88 | – | –
17 | CC1(C)C2CC[C@@](C)(C2)C1NC(=O)c1nn(-c2ccc(Cl)cc2)c2c1C1CC3CC(C1)CC2C3 (stereo partly drawn) [Example 110, N(7)-(1S,2endo-1,3,3-Trimethyl-bicyclo[2.2.1]hept-2-yl)-5-(4-chlorophenyl)-5,6-diazatetracyclo[7.3.1.1^3,11.0^4,8]tetradeca-4(8)-6-diene-7-carboxamide] | 37.69 | – | – | – | 60.7 | – | –
18 | O=C(NNc1ccc(Cl)c(Cl)c1)c1nn(-c2ccc(Cl)cc2)c2c1C1CCC2C1 (stereo not drawn) [Example 231, N(3)-[(3,4-Dichlorophenyl)amino]-1-(4-chlorophenyl)-4,5,6,7-tetrahydro-H-4,7-methano-indazole-3-carboxamide] | 30.79 | – | – | 31.9 | – | – | –
19 | O=C(NCc1ccc(C(F)(F)F)cc1)c1nn(-c2ccc(Cl)cc2)c2c1C1CCC2C1 (stereo not drawn) [Example 227, N(3)-(4-Trifluoromethylbenzyl)-1-(4-chlorophenyl)-4,5,6,7-tetrahydro-H-4,7-methano-indazole-3-carboxamide] | 3.51 | – | – | 25.3 | – | – | –
20 | Cn1nc2c(c1C(=O)NN1CCCCC1)C1CC3CC(CC2C3)C1 [Example 189a, N(7)-Piperidino-6-methyl-5,6-diazatetracyclo[7.3.1.1^3,11.0^4,8]tetradeca-4(8)-6-diene-7-carboxamide] | 21.2 | – | – | 7 | 0.81 | – | –
21 | C[C@H](NC(=O)c1nn(-c2ccc(Cl)cc2Cl)c2c1C1CCC2C1)c1ccccc1 (stereo partly drawn) [Example 252, N(3)-[S-(1-phenylethyl)]-1-(2,4-dichlorophenyl)-4,5,6,7-tetrahydro-1H-4,7-methano-indazole-3-carboxamide] | 74.52 | – | – | 99.8 | – | 48.2 | 58.8
22 | CN(NC(=O)c1nn(-c2ccc(Cl)cc2)c2c1C1CC3CC(C1)CC2C3)c1ccc(Cl)cc1Cl.Cl [Example 128] | 37.28 | – | – | 83 | – | – | –
23 | O=C(c1n[nH]c2c1C1CC3CC(CC2C3)C1)N1CCCCC1 [Example 188, 6,7-Diazatetracyclo[7.3.1.1^3,11.0^4,8]tetradeca-4(8)-5-dien-5-yl-piperidinomethanone] | 12.5 | – | – | 19.5 | 36.01 | – | –

Source: US7923465B2, “Cannabinoid receptor ligands, pharmaceutical compositions containing them, and process for their preparation” (priority 2005, dated 2011)
